Experimental data reported in patent EP1119551B1, “NAPHTHALENECARBOXAMIDES AS TACHYKININ RECEPTOR ANTAGONISTS” (AstraZeneca AB, priority 1998, dated 2000).

Experiments:
[1] = molecular target: NK1 receptor (Oryctolagus cuniculus, UniProt G1SEI7); assay: Rabbit Pulmonary Artery: NK1 in vitro functional assay (Test C); assay type: cell-based; details: antagonism of agonist ASMSP, -log molar apparent dissociation constant KB
Procedure: Rabbit Pulmonary Artery: NK1 in vitro functional assay (Test C) […] Male New Zealand white rabbits are euthanized via i.v. injection into the ear vein with 60 mg/kg Nembutal (50 mg/mL). Preceding the Nembutal into the vein is Heparin (1000 units/mL) at 0.0025 mL/kg for anticoagulant purposes. The chest cavity is opened from the top of the rib cage to the sternum and the heart, lungs and part of the trachea are removed. The pulmonary arteries are isolated from the rest of the tissues and cut in half to serve as pairs. […] Responses are measured on a Grass polygraph via Grass FT-03 transducers. […] Percent inhibition is determined when a tested compound produces a statistically significant (p < 0.05) reduction of the total relaxation which is calculated using the total relaxation of the Papaverine as 100%. Potencies of the compounds are determined by calculating the apparent dissociation constants (KB) for each concentration tested using the standard equation: KB= [antagonist]/ (dose ratio - 1) [formula] where dose ratio = antilog[(agonist -log molar EC50 without compound) - (-log molar EC50 with compound)]. The KB values may be converted to the negative logarithms and expressed as -log molar KB (i.e. pKB). […] The EC50 values are converted to negative logarithms and expressed as -log molar EC50.

[2] = molecular target: T1, NK2 receptor (Oryctolagus cuniculus, UniProt P79218); assay: Rabbit Pulmonary Artery: NK2 in vitro functional assay (Test D); assay type: cell-based; details: antagonism of agonist BANK, -log molar apparent dissociation constant KB, read-out: NK2 pKb (Test D) (converted)
T1 construct: The pulmonary arteries are isolated from the rest of the tissues, then rubbed over an intimal surface to remove the endothelium; from tissue; host or cells: rabbit pulmonary artery rings (endothelium removed)
T1 sequence (P79218 1-384): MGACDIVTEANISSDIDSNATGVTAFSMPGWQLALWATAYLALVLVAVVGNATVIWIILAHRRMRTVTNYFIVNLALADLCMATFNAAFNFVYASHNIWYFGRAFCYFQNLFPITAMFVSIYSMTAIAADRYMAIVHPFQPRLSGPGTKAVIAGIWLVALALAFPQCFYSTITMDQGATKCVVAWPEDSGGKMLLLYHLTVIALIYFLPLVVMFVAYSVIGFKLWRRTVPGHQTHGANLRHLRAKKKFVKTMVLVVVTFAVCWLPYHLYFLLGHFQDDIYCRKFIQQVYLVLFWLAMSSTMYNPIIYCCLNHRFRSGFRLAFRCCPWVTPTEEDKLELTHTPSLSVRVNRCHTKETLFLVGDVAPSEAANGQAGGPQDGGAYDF
Procedure: The ability of a compound of the invention to antagonize the action of the agonist [β-ala8] […] Male New Zealand white rabbits are euthanized via i.v. injection into the ear vein with 60 mg/kg Nembutal (50 mg/mL). Preceding the Nembutal into the vein is Heparin (1000 units/mL) at 0.0025 mL/kg for anticoagulant purposes. The chest cavity is opened from the top of the rib cage to the sternum and a small incision is made into the heart so that the left and right pulmonary arteries can be cannulated with polyethylene tubing (PE260 and PE190 respectively). […] Responses are measured on a Grass polygraph via Grass FT-03 transducers. […]
Percent inhibition is determined when a tested compound produces a statistically significant (p < 0.05) reduction of the total contraction which is calculated using the total contraction of the BaCl2 as 100%. Potencies of the compounds are determined by calculating the apparent dissociation constants (KB) for each concentration tested using the standard equation: KB = [antagonist]/ (dose ratio - 1) [formula] where dose ratio = antilog[(agonist -log molar EC50 without compound) - (-log molar EC50 with compound)]. The KB values may be converted to the negative logarithms and expressed as -log molar KB (i.e. pKB). […] The EC50 values are converted to negative logarithms and expressed as -log molar EC50.

NK1 receptor, sequence (G1SEI7 1-407): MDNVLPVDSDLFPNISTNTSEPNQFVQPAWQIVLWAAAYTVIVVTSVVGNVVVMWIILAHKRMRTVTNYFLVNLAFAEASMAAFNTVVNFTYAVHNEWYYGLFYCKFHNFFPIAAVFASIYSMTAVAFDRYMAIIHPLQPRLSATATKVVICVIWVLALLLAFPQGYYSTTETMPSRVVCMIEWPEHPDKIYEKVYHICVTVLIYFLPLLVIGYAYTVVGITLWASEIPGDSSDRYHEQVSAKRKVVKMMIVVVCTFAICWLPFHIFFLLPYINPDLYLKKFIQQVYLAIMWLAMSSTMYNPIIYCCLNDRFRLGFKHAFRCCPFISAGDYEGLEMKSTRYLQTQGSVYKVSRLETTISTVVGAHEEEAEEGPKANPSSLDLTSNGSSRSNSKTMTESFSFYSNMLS

**Q.** Which results are given for COc1c(C#N)cc2ccccc2c1C(=O)N(C)C[C@@H](CCN1CCC(c2ccccc2[S@+](C)[O-])CC1)c1ccc(Cl)c(Cl)c1.O=C(O)CC(O)(CC(=O)O)C(=O)O [Example 1, N-[(S)-2-(3,4-Dichlorophenyl)-4-[4-[(S)-2-methylsulfinylphenyl]-1-piperidinyl]butyl]-N-methyl-2-methoxy-3-cyano-1-naphthamide citrate]?
**A.** NK1 pKb (Test C) [1]: 9.5; Kb [2]: 50.1 nM

**Q.** For CCc1c(C#N)cc2ccccc2c1C(=O)N(C)C[C@@H](CCN1CCC(c2ccccc2[S@+](C)[O-])CC1)c1ccc(Cl)c(Cl)c1.O=C(O)CC(O)(CC(=O)O)C(=O)O [Example 18, N-[(S)-2-(3,4-Dichlorophenyl)-4-[4-[(S)-2-methylsulfinylphenyl]-1-piperidinyl]butyl]-N-methyl-3-cyano-2-ethyl-1-naphthamide citrate], which “NK1 pKb (Test C)” value [1] is on record?
**A.** 9.6

**Q.** What about the Kb [2] of the same molecule?
**A.** 50.1 nM
